Reference: USRE42890E1, “Furazanobenzimidazoles” (Basilea Pharmaceutica AG, priority 2003, dated 2011)

The molecules below were run on Jurkat (assay: MTS proliferation assay, Jurkat). Details: 72 h incubation, read-out: MTS proliferation assay IC 50 Jurkat.
Type: cell-based, human
Procedure, shortened: (§1)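 Cells were seeded 24 h before treatment and exposed to compound at 10, 3, 1 and 0.3 μM final for 72 h at 37 °C, 7.5% CO2 in RPMI-1640 with 5% or 10% FCS. Viability was read by MTS reagent (3 h) as absorbance at 492 nm.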

SMILES | IC50 [nM]
N#CCCNc1nonc1-c1nc2ccccc2n1CC(=O)c1ccc(N)nc1 [Example 79] | < 10
COc1cc(C(=O)Cn2c(-c3nonc3N)nc3ccccc32)ccc1OC(C)=O [Example 75] | 100 to 1000

These molecules were tested on Jily (assay: MTS proliferation assay, Jily). Details: 72 h incubation, read-out: MTS proliferation assay IC 50 Jily.
Type: cell-based
Procedure, shortened: (§2)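 Cells in RPMI-1640 with 5% or 10% FCS, 2-mercaptoethanol and glutamine were seeded 24 h before treatment with compound at final 10, 3, 1 and 0.3 μM. After 72 h at 37° C and 7.5% CO2, MTS reagent was added for 3 h and absorbance read at 492 nm.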

SMILES | IC50 [nM]
N#CCCNc1nonc1-c1nc2ccccc2n1CC(=O)c1ccc(N)nc1 [Example 79] | < 10
COc1cc(C(=O)Cn2c(-c3nonc3N)nc3ccccc32)ccc1OC(C)=O [Example 75] | 100 to 1000

These molecules were tested on HT1080 (assay: MTS proliferation assay, HT1080). Details: HT1080, 72 h incubation; read-out: MTS proliferation assay IC 50 HT1080.
Type: cell-based, human
Procedure, shortened: as §1

SMILES | IC50 [nM]
N#CCCNc1nonc1-c1nc2ccccc2n1CC(=O)c1ccc(N)nc1 [Example 79] | < 10
COc1cc(C(=O)Cn2c(-c3nonc3N)nc3ccccc32)ccc1OC(C)=O [Example 75] | 100 to 1000

These molecules were tested on HeLa (assay: MTS proliferation assay, HeLa). Details: 72 h incubation, read-out: MTS proliferation assay IC 50 HeLa.
Type: cell-based, human
Procedure, shortened: as §1

SMILES | IC50 [nM]
N#CCCNc1nonc1-c1nc2ccccc2n1CC(=O)c1ccc(N)nc1 [Example 79] | < 10
COc1cc(C(=O)Cn2c(-c3nonc3N)nc3ccccc32)ccc1OC(C)=O [Example 75] | 100 to 1000

What follows are molecules tested on MRC5 (assay: MTS proliferation assay, MRC5). Details: MRC5, 72 h incubation; read-out: MTS proliferation assay IC 50 MRC5.
Type: cell-based
Procedure, shortened: as §2

SMILES | IC50 [nM]
N#CCCNc1nonc1-c1nc2ccccc2n1CC(=O)c1ccc(N)nc1 [Example 79] | < 10
COc1cc(C(=O)Cn2c(-c3nonc3N)nc3ccccc32)ccc1OC(C)=O [Example 75] | 100 to 1000

The molecules below were run on adherent cells or suspension cells (assay: Hoechst 33342 nuclear staining (fraction of apoptotic nuclei)). Details: H460, conc 0.01 μm.
Type: cell-based
Design: key: 0 relating to no activity; 1 relating to weak activity comprising less than 70% of the cells; score 2 relating to strong activity comprising more than 70% of the cells

SMILES | Hoechst 33342 nuclear staining score
N#CCCNc1nonc1-c1nc2ccccc2n1CC(=O)c1ccc(N)nc1 [Example 79] | 2 (score 2 relating to strong activity comprising more than 70% of the cells)
COc1cc(C(=O)Cn2c(-c3nonc3N)nc3ccccc32)ccc1OC(C)=O [Example 75] | 0

Same assay, conditions: H460, conc 0.1 μm

SMILES | Hoechst 33342 nuclear staining score
N#CCCNc1nonc1-c1nc2ccccc2n1CC(=O)c1ccc(N)nc1 [Example 79] | 2 (score 2 relating to strong activity comprising more than 70% of the cells)
COc1cc(C(=O)Cn2c(-c3nonc3N)nc3ccccc32)ccc1OC(C)=O [Example 75] | 0

Same assay, conditions: H460, conc 1 μm

SMILES | Hoechst 33342 nuclear staining score
N#CCCNc1nonc1-c1nc2ccccc2n1CC(=O)c1ccc(N)nc1 [Example 79] | 2 (score 2 relating to strong activity comprising more than 70% of the cells)
COc1cc(C(=O)Cn2c(-c3nonc3N)nc3ccccc32)ccc1OC(C)=O [Example 75] | 2 (score 2 relating to strong activity comprising more than 70% of the cells)

Same assay, conditions: HeLa, conc 0.01 μm

SMILES | Hoechst 33342 nuclear staining score
N#CCCNc1nonc1-c1nc2ccccc2n1CC(=O)c1ccc(N)nc1 [Example 79] | 2 (score 2 relating to strong activity comprising more than 70% of the cells)
COc1cc(C(=O)Cn2c(-c3nonc3N)nc3ccccc32)ccc1OC(C)=O [Example 75] | 0

Same assay, conditions: HeLa, conc 0.1 μm

SMILES | Hoechst 33342 nuclear staining score
N#CCCNc1nonc1-c1nc2ccccc2n1CC(=O)c1ccc(N)nc1 [Example 79] | 2 (score 2 relating to strong activity comprising more than 70% of the cells)
COc1cc(C(=O)Cn2c(-c3nonc3N)nc3ccccc32)ccc1OC(C)=O [Example 75] | 0

Same assay, conditions: HeLa, conc 1 μm

SMILES | Hoechst 33342 nuclear staining score
N#CCCNc1nonc1-c1nc2ccccc2n1CC(=O)c1ccc(N)nc1 [Example 79] | 2 (score 2 relating to strong activity comprising more than 70% of the cells)
COc1cc(C(=O)Cn2c(-c3nonc3N)nc3ccccc32)ccc1OC(C)=O [Example 75] | 1 (1 relating to weak activity comprising less than 70% of the cells)

Same assay, conditions: Jily, conc 0.01 μm

SMILES | Hoechst 33342 nuclear staining score
N#CCCNc1nonc1-c1nc2ccccc2n1CC(=O)c1ccc(N)nc1 [Example 79] | 2 (score 2 relating to strong activity comprising more than 70% of the cells)
COc1cc(C(=O)Cn2c(-c3nonc3N)nc3ccccc32)ccc1OC(C)=O [Example 75] | 0

Same assay, conditions: Jily, conc 0.1 μm

SMILES | Hoechst 33342 nuclear staining score
N#CCCNc1nonc1-c1nc2ccccc2n1CC(=O)c1ccc(N)nc1 [Example 79] | 2 (score 2 relating to strong activity comprising more than 70% of the cells)
COc1cc(C(=O)Cn2c(-c3nonc3N)nc3ccccc32)ccc1OC(C)=O [Example 75] | 0

Same assay, conditions: Jily, conc 1 μm

SMILES | Hoechst 33342 nuclear staining score
N#CCCNc1nonc1-c1nc2ccccc2n1CC(=O)c1ccc(N)nc1 [Example 79] | 2 (score 2 relating to strong activity comprising more than 70% of the cells)
COc1cc(C(=O)Cn2c(-c3nonc3N)nc3ccccc32)ccc1OC(C)=O [Example 75] | 2 (score 2 relating to strong activity comprising more than 70% of the cells)

Same assay, conditions: Jurkat, conc 0.01 μm

SMILES | Hoechst 33342 nuclear staining score
N#CCCNc1nonc1-c1nc2ccccc2n1CC(=O)c1ccc(N)nc1 [Example 79] | 2 (score 2 relating to strong activity comprising more than 70% of the cells)
COc1cc(C(=O)Cn2c(-c3nonc3N)nc3ccccc32)ccc1OC(C)=O [Example 75] | 0

Same assay, conditions: Jurkat, conc 0.1 μm

SMILES | Hoechst 33342 nuclear staining score
N#CCCNc1nonc1-c1nc2ccccc2n1CC(=O)c1ccc(N)nc1 [Example 79] | 2 (score 2 relating to strong activity comprising more than 70% of the cells)
COc1cc(C(=O)Cn2c(-c3nonc3N)nc3ccccc32)ccc1OC(C)=O [Example 75] | 0

Same assay, conditions: Jurkat, conc 1 μm

SMILES | Hoechst 33342 nuclear staining score
N#CCCNc1nonc1-c1nc2ccccc2n1CC(=O)c1ccc(N)nc1 [Example 79] | 2 (score 2 relating to strong activity comprising more than 70% of the cells)
COc1cc(C(=O)Cn2c(-c3nonc3N)nc3ccccc32)ccc1OC(C)=O [Example 75] | 2 (score 2 relating to strong activity comprising more than 70% of the cells)

Same assay, conditions: MRC5, conc 0.01 μm

SMILES | Hoechst 33342 nuclear staining score
N#CCCNc1nonc1-c1nc2ccccc2n1CC(=O)c1ccc(N)nc1 [Example 79] | 1 (1 relating to weak activity comprising less than 70% of the cells)
COc1cc(C(=O)Cn2c(-c3nonc3N)nc3ccccc32)ccc1OC(C)=O [Example 75] | 0

Same assay, conditions: MRC5, conc 0.1 μm

SMILES | Hoechst 33342 nuclear staining score
N#CCCNc1nonc1-c1nc2ccccc2n1CC(=O)c1ccc(N)nc1 [Example 79] | 2 (score 2 relating to strong activity comprising more than 70% of the cells)
COc1cc(C(=O)Cn2c(-c3nonc3N)nc3ccccc32)ccc1OC(C)=O [Example 75] | 0

Same assay, conditions: MRC5, conc 1 μm

SMILES | Hoechst 33342 nuclear staining score
N#CCCNc1nonc1-c1nc2ccccc2n1CC(=O)c1ccc(N)nc1 [Example 79] | 2 (score 2 relating to strong activity comprising more than 70% of the cells)
COc1cc(C(=O)Cn2c(-c3nonc3N)nc3ccccc32)ccc1OC(C)=O [Example 75] | 1 (1 relating to weak activity comprising less than 70% of the cells)

Same assay, conditions: PBLs, conc 0.01 μm

SMILES | Hoechst 33342 nuclear staining score
N#CCCNc1nonc1-c1nc2ccccc2n1CC(=O)c1ccc(N)nc1 [Example 79] | 0
COc1cc(C(=O)Cn2c(-c3nonc3N)nc3ccccc32)ccc1OC(C)=O [Example 75] | 0

Same assay, conditions: PBLs, conc 0.1 μm

SMILES | Hoechst 33342 nuclear staining score
N#CCCNc1nonc1-c1nc2ccccc2n1CC(=O)c1ccc(N)nc1 [Example 79] | 0
COc1cc(C(=O)Cn2c(-c3nonc3N)nc3ccccc32)ccc1OC(C)=O [Example 75] | 0

Same assay, conditions: PBLs, conc 1 μm

SMILES | Hoechst 33342 nuclear staining score
N#CCCNc1nonc1-c1nc2ccccc2n1CC(=O)c1ccc(N)nc1 [Example 79] | 0
COc1cc(C(=O)Cn2c(-c3nonc3N)nc3ccccc32)ccc1OC(C)=O [Example 75] | 0
